Test results reported in patent US8664276B2, “Stilbene analogs and methods of treating cancer” (University of Kentucky Research Foundation, priority 2011, dated 2014).

Legend:
MAT2A-K265L = target: T1, MAT2A-K265L (Homo sapiens, UniProt P31153, K265L); test: In vitro binding assay, mutant MAT2A (K265L); details: lysine 265 mutated to leucine
T1 construct: made in house
Text: To test if the halogenated stilbene analogs of the present disclosure also bind MAT1A, a His-tagged MAT1A was cloned in and purified from E. coli. […] According to published MAT structures, several key residues are involved in substrate binding and catalysis. Among these key residues, lysine 265 is conserved between MAT1A and MAT2A and among different species. […] Taken together, the FlDAS reagents are specific inhibitors of MAT2A, and are promising drug candidates for multiple cancers as well as metabolic diseases.

MAT2B = target: T2, MAT2B (Homo sapiens, UniProt Q9NZL9); test: Streptavidin bead pull-down binding assay, GST-MAT2B; details: recombinant protein from E. coli
T2 construct: made in house; host or cells: E. coli BL21
T2 sequence (Q9NZL9 1-334): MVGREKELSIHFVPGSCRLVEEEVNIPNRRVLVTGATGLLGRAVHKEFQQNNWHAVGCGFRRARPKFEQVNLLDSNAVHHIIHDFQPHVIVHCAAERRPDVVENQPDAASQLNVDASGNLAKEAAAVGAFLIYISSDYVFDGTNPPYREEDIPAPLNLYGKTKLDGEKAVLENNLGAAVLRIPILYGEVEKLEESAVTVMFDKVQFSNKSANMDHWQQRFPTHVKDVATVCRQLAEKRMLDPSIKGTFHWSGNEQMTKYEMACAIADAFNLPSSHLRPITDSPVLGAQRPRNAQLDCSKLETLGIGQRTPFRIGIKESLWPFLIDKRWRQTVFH
Method: (§1) MAT2A and MAT2B were cloned into pGEX6p3 vector. The constructs were transfected into E. coli BL21. The GST-fusion proteins were induced by IPTG and purified by glutathione beads as described previously (See Liu, beta-Trcp couples beta-catenin phosphorylation-degradation and regulates Xenopus axis formation. Proc Natl Acad Sci USA 1999, 96, 6273-8). For the binding assay, purified proteins were incubated with streptavidin beads and biotinylated FlDAS 13 described above. Eluted proteins were analyzed by western blot with antibodies against GST, MAT2A or MAT2B.
(§2) Since MAT2A and MAT2B bind each other and form a complex, to determine which subunit directly interacts with FIDAS reagents, recombinant MAT2A and MAT2B were purified and tested for interaction with FIDAS. Briefly, GST-MAT2A and GST-MAT2B fusion proteins were expressed and purified from E. coli. These proteins were incubated with streptavidin beads with or without biotinylated derivative 13 (FIG. 9A). The binding proteins were eluted by 2.5 mM D-biotin and analyzed by Western blot with an anti-GST-Ab.

MAT2A = MAT2A (Homo sapiens, UniProt P31153); test: Streptavidin bead pull-down binding assay, GST-MAT2A; set-up: GST (N); made in house; details: recombinant protein from E. coli
Method: as §1, §2

MAT2A, sequence (P31153 whole entry): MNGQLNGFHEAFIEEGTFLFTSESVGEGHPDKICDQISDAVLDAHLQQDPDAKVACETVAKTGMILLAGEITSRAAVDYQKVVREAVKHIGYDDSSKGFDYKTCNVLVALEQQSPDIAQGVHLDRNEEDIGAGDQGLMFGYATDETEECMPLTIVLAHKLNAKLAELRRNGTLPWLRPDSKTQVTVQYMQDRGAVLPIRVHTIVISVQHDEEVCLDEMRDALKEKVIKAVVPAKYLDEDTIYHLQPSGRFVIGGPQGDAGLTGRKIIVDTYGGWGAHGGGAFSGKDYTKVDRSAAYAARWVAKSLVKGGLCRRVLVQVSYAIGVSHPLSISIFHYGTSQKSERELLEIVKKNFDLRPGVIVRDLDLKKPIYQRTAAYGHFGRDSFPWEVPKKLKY
T1 sequence (P31153 whole entry K265L): as the sequence (P31153 whole entry) above, with K265L counted along it

For CN(CC(=O)NCCOCCOCCNC(=O)CCCCC1SCC2NC(=O)NC21)c1ccc(C=Cc2c(F)cccc2F)cc1 (stereo not drawn) [compound 13, N-(2-(4-(2,6-Difluorostyryl)phenyl)-4-oxo-8,11-dioxa-2,5-diazamidecan-13-yl)-5-(2-oxohexahydro-1H-thieno[3,4-d]imidazol-4-yl)pentanamide], the “binding to mutant MAT2A (K265L)” value (MAT2A-K265L) was “significantly decreased”, the “binding to MAT2B” value (MAT2B) was “indirectly through MAT2A” and the “binding to MAT2A” value (MAT2A) was “directly binds”.
